Experimental data from US20070190143A1, “Disintegrating tablets comprising licarb azepine” (priority 2004, published 2007).
Values after ≈ are worked out from the molar mass of the structure shown.

Assay: solubility in water
Assay type: physicochemical
Conditions: 25° C.
Description: Licarbazepine is indicated to be suitable for the treatment of psychosomatic disturbances, epilepsy, trigeminal neuralgia and cerebral spasticity. […] The mechanisms by which the compounds of the invention exert their anticonvulsant effects are not completely understood, but their activity may be partly due to effects on ion flow across neuronal membranes. However, pharmacokinetics, absorption sites and mechanisms of action of the compounds of the invention are not understood in detail. Licarbazepine is slightly soluble in water (3.2 mg/ml at 25° C.). In view of this physical property, a parenteral formulation of licarbazepine can be prepared as described, e. g., in EP-1 033 988. Despite the merits of the known parenteral dosage form, there remains a need to establish an advantageous oral dosage form of the compounds of the invention. One of the problems that may occur using an oral dosage form is the fluctuation of blood levels of the compounds of the invention on repeated administration, which may be associated with side effects.

Structure (SMILES): NC(=O)N1c2ccccc2CC(O)c2ccccc21 (racemic) [Licarbazepine, 10,11-dihydro-10-hydroxy-5H-dibenz[b,f]azepine-5-carboxamide]
- solubility: 3200 µg/mL (≈ 12.6 mM)
